The values that follow come from ChEMBL document CHEMBL2169870, “A novel aminopeptidase N inhibitor developed by virtual screening approach” (Bioorg Med Chem Lett, 2012).

The structures appear in SMILES notation. Calls of active or inactive are those of the source. The rule behind the calls is not given here.

As a reminder, the IC50 is the concentration needed to halve the response being measured.

In one data set the target is T1, Aminopeptidase N (Sus scrofa, UniProt P15145).
T1 sequence (P15145 whole entry): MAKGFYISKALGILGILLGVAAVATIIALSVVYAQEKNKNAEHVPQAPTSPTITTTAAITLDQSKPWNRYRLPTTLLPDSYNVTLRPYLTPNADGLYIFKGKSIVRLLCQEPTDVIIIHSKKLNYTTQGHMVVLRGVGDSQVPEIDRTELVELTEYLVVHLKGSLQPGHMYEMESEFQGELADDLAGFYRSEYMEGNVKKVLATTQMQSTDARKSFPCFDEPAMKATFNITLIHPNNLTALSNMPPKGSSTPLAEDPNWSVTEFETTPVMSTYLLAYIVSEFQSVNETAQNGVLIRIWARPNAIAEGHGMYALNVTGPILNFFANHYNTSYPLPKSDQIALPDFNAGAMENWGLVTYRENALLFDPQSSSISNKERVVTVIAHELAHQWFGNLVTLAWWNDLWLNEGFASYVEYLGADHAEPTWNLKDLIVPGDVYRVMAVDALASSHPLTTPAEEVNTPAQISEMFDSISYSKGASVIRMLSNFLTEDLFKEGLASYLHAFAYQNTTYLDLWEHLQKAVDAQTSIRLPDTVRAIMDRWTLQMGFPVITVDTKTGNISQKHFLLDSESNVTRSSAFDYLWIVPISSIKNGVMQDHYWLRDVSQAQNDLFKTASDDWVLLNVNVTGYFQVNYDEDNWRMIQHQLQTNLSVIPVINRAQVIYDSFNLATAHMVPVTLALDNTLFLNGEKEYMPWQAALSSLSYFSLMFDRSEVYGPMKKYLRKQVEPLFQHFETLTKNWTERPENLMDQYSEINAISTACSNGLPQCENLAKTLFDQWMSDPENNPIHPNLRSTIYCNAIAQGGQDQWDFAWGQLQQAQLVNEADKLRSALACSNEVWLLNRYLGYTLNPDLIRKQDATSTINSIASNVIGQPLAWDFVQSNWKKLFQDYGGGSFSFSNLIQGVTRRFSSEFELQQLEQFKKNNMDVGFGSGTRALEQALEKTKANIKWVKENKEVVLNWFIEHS
Briefly: Inhibition of porcine kidney microsome aminopeptidase using L-Leu-p-nitroanilide as substrate after 30 mins.

In data set [1] the test system is HL-60. Kind of data set: Cytotoxicity against human HL60 cells after 48 hrs by MTT assay. For orientation: Formazan colour is commonly taken as a measure of viable cells.
The test system of another data set is ES2. Briefly: Cytotoxicity against human ES2 cells after 48 hrs by MTT assay.
Data set [2] relates to MDA-MB-231. Briefly: Induction of apoptosis in human MDA-MB-231 cells assessed as late apoptotic cells at 20 uM after 24 hrs using annexin-V-FITC staining by flow cytometry (reference value: 1.69%). It is filed as functional. Background: In flow cytometry, cells or beads pass a laser one at a time.
The test system of the next data set is NIH3T3. Kind of data set: Cytotoxicity against mouse NIH/3T3 cells after 48 hrs by MTT assay. It is filed as cell-based.
In data set [3] the test system is HeLa. Kind of data set: Cytotoxicity against human HeLa cells after 48 hrs by MTT assay.
Data set [4] relates to MDA-MB-231. Kind of data set: Cell cycle arrest in human MDA-MB-231 cells assessed as accumulation at G1 phase at 20 uM after 48 hrs using propidium iodide staining by flow cytometry (reference value: 48.40%). It is filed as functional.
Data set [5] concerns MCF7. Kind of data set: Cytotoxicity against human MCF7 cells after 48 hrs by MTT assay.
Data set [6] concerns MDA-MB-231. Kind of data set: Cell cycle arrest in human MDA-MB-231 cells assessed as accumulation at G2 phase at 20 uM after 48 hrs using propidium iodide staining by flow cytometry (reference value: 18.35%). It is filed as functional.
In data set [7] the test system is SK-OV-3. Briefly: Cytotoxicity against human SKOV3 cells after 48 hrs by MTT assay.
Data set [8] concerns NB-4. Kind of data set: Cytotoxicity against human NB4 cells after 48 hrs by MTT assay.
In data set [9] the test system is MDA-MB-231. Kind of data set: Induction of apoptosis in human MDA-MB-231 cells assessed as early apoptotic cells at 20 uM after 24 hrs using annexin-V-FITC staining by flow cytometry (reference value: 1.69%). It is filed as functional.
Data set [10] relates to MDA-MB-231. Briefly: Antimetastatic activity in human MDA-MB-231 cells assessed as inhibition of cell invasion at 20 uM after 20 hrs by matrigel assay. It is filed as functional, cell-based.
Data set [11] deals with MDA-MB-231. Briefly: Cell cycle arrest in human MDA-MB-231 cells assessed as accumulation at S phase at 20 uM after 48 hrs using propidium iodide staining by flow cytometry (reference value: 33.25%). It is filed as functional.
A short description of data set [12]: Cytotoxicity against human ES2 cells after 48 hrs by MTT assay. The settings on record: ES-2, 48 h.
Data set [13] concerns NB-4. Briefly: Cytotoxicity against human NB4 cells after 48 hrs by MTT assay. The settings on record: NB-4, 48 h.
Another data set has as its system A549. Kind of data set: Cytotoxicity against human A549 cells after 48 hrs by MTT assay. As to conditions: A549, 48 h.
Data set [14] deals with HL-60. Briefly: Cytotoxicity against human HL60 cells after 48 hrs by MTT assay. The settings on record: HL-60, 48 h.
Data set [15] deals with MCF7. Briefly: Cytotoxicity against human MCF7 cells after 48 hrs by MTT assay. As to conditions: MCF7, 48 h.
For the next data set, the system named is HCT-116. Briefly: Cytotoxicity against human HCT116 cells after 48 hrs by MTT assay. The settings on record: HCT-116, 48 h.
In data set [16] the test system is MDA-MB-231. Briefly: Induction of apoptosis in human MDA-MB-231 cells assessed as late apoptotic cells at 300 uM after 24 hrs using annexin-V-FITC staining by flow cytometry (reference value: 1.69%). It is filed as functional.
Another data set relates to K562. Kind of data set: Cytotoxicity against human K562 cells after 48 hrs by MTT assay. As to conditions: K562, 48 h.
The subject of data set [17] is MDA-MB-231. Kind of data set: Cell cycle arrest in human MDA-MB-231 cells assessed as accumulation at S phase at 300 uM after 48 hrs using propidium iodide staining by flow cytometry (reference value: 33.25%). It is filed as functional.
For another data set, the system named is PC-3. Kind of data set: Cytotoxicity against human PC3 cells after 48 hrs by MTT assay. The settings on record: PC-3, 48 h.
Data set [18] relates to MDA-MB-231. Kind of data set: Induction of apoptosis in human MDA-MB-231 cells assessed as early apoptotic cells at 300 uM after 24 hrs using annexin-V-FITC staining by flow cytometry (reference value: 1.69%). It is filed as functional.
In data set [19] the test system is MDA-MB-231. Briefly: Cytotoxicity against human MDA-MB-231 cells after 48 hrs by MTT assay. The settings on record: MDA-MB-231, 48 h.
Data set [20] has as its system SK-OV-3. Kind of data set: Cytotoxicity against human SKOV3 cells after 48 hrs by MTT assay. As to conditions: SK-OV-3, 48 h.
Data set [21] deals with HeLa. Kind of data set: Cytotoxicity against human HeLa cells after 48 hrs by MTT assay.
For data set [22], the system named is MDA-MB-231. Briefly: Cell cycle arrest in human MDA-MB-231 cells assessed as accumulation at G1 phase at 300 uM after 48 hrs using propidium iodide staining by flow cytometry (reference value: 48.40%). It is filed as functional.
Data set [23] relates to MDA-MB-231. Kind of data set: Cell cycle arrest in human MDA-MB-231 cells assessed as accumulation at G2 phase at 300 uM after 48 hrs using propidium iodide staining by flow cytometry (reference value: 18.35%). It is filed as functional.
The test system of data set [24] is MDA-MB-231. Briefly: Antimetastatic activity in human MDA-MB-231 cells assessed as inhibition of cell invasion at 300 uM after 20 hrs by matrigel assay. It is filed as functional, cell-based.

At Aminopeptidase N, `O=C(O)COc1ccc(/C=N/n2c(COc3ccccc3)nc3ccccc3c2=O)cc1` yielded an IC50 of 188 µM.
On the same count and under the same terms, then `O=C1NC(=O)C(=NNc2cc([N+](=O)[O-])ccc2O)C(=O)N1`, with more than 1000 µM.
Still for that read-out and setting: then `CC(=O)NC(=S)NNC(=O)COc1ccc(Br)cc1`, with 227 µM; and `C=CCN/C(S)=N/C=C1C(=O)NC(=O)NC1=O`, with 65.9 µM.
As for `O=C1Nc2ccccc2/C1=C1/SC(=S)N(NC(=O)c2cccc(O)c2)C1=O`, the IC50 against Aminopeptidase N was determined as 170 µM.
Turning to `NC(=O)c1ccccc1NC(=O)c1ccccc1C(=O)O`, half-maximal inhibition against Aminopeptidase N (IC50) required 66.3 µM.
`NS(=O)(=O)c1ccc(-n2cccc2/C=C2/C(=O)NN(c3ccc(Cl)cc3)C2=O)cc1` showed a half-maximal inhibitory concentration (IC50) at Aminopeptidase N of more than 1000 µM.
For the compound `O=C(CN1C(=O)C2(OCCO2)c2cc(Br)ccc21)NO`, the Activity entry was “Dose-dependent effect” in the data set on HL-60 [1]; “Dose-dependent effect” in the data set on ES2; 5.35% in the data set on MDA-MB-231 [2]; “Dose-dependent effect” with NIH3T3 (mouse, nih3t3, 48 h); “Dose-dependent effect” in the data set with HeLa [3]; 93.27% with MDA-MB-231 [4]. The Activity entry is “Dose-dependent effect” in the data set on MCF7 [5]; 3.83% with MDA-MB-231 [6]; “Dose-dependent effect” in the data set with SK-OV-3 [7]; “Dose-dependent effect” in the data set on NB-4 [8]; 4.99% in the data set on MDA-MB-231 [9]; 2.9% in the data set with MDA-MB-231 [11]. Besides, the outcome in the data set with MDA-MB-231 [10] was Active.
`Nn1c(COc2ccccc2)n[nH]c1=S`: half-maximal inhibition against Aminopeptidase N (IC50) was put at 424 µM.
Same read-out and setting: the figure for `CCOC(=O)/C(N)=N/NS(=O)(=O)c1ccc(C)cc1` is 321 µM; for `Cc1[nH]cnc1/C=N/NC(N)=S` it is more than 1000 µM.
Still for that read-out and setting: then `NC(=S)NNC(=O)c1ccccc1C(=O)O`, with more than 1000 µM; and `Nc1nc2c(ncn2S(=O)(=O)c2cccc(C(=O)O)c2)c(=O)[nH]1`, with 202 µM; and `COc1cc(/C=C2/C(=O)NC(=O)N(Cc3ccc(F)cc3)C2=O)cc(OC)c1O`, with 78.9 µM.
Still for that read-out and setting: the figure for `O=C1NC(=O)C(=NNc2cccc(C(=O)O)c2)C(=O)N1` is more than 1000 µM; for `Cc1cc(/C=N/Nc2ccc([N+](=O)[O-])cc2[N+](=O)[O-])c(C)n1-c1ccc(S(N)(=O)=O)cc1` it is more than 1000 µM; for `CC[C@H](N)[C@H](O)c1ccc(OC)cc1` it is more than 1000 µM.
Consider `CC(C)C[C@H](NC(=O)[C@@H](O)[C@H](N)Cc1ccccc1)C(=O)O` [UBENIMEX], for which the IC50 in data set [12] was 74.5 µM; in the data set with NB-4 [13] it was 221 µM; in the data set with A549 it was 513 µM; in the data set on HL-60 [14], 86.4 µM; in the data set with MCF7 [15], more than 1 mM; in the data set on HCT-116, more than 1 mM. In addition, the IC50 in the data set with NIH3T3 (Mus musculus, NIH3T3, 48 h) is more than 1 mM; in the data set on K562 it was 136 µM; in the data set on PC-3 it was 399 µM; in the data set with MDA-MB-231 [19], 50.6 µM; in the data set on SK-OV-3 [20], more than 1 mM; in the data set with HeLa [21], 155 µM. The Activity with MDA-MB-231 [16] is on record as 2.14%; with MDA-MB-231 [17], 15.06%; with MDA-MB-231 [18] it was 8.54%; in the data set on MDA-MB-231 [22] it was 77.91%; in the data set on MDA-MB-231 [23] it was 7.03%. The result in the data set with MDA-MB-231 [24] was Active.
In turn, `NNC(=O)/C(=C/c1ccc([N+](=O)[O-])cc1)NC(=O)c1ccc(Br)cc1` returned an IC50 at Aminopeptidase N of 438 µM.
